One data set concerns A/Perth/16/2009 (H3N2). As to the kind of experiment: Antiviral activity (drug efficacy evaluation by concentration) against A/Perth/16/2009 (H3N2). Format: cell-based, A type influenza virus.
In data set [1] the test system is A/California/07/2009 (H1N1). As to the kind of experiment: Antiviral activity (drug efficacy evaluation by concentration) against A/California/07/2009 (H1N1). In kind it is cell-based, A type influenza virus.
A further data set has as its system MDCK cells. As to the kind of experiment: Cytotoxicity (CC50) in the influenza infection assay.
A further data set concerns B/Florida/04/2006. The data set can be described thus: Antiviral activity (drug efficacy evaluation by concentration) against B/Florida/04/2006. In kind it is cell-based, B type influenza virus.
[2] abbreviates: A/Perth/16/2009 (H3N2), read-out: EC50 A/Perth/16/2009 (H3N2).
The mark [3] stands for this setting: A/California/07/2009 (H1N1), read-out: EC50 A/California/07/2009 (H1N1).
[4] abbreviates: read-out: CC50 A/California/07/2009 (H1N1), cytotoxicity in the A/California/07/2009 (H1N1) assay.
Where [5] appears, read: read-out: CC50 A/Perth/16/2009 (H3N2), cytotoxicity in the A/Perth/16/2009 (H3N2) assay.
Setting [6] is: read-out: CC50 B/Florida/04/2006, cytotoxicity in the B/Florida/04/2006 assay.
Setting [7] is: read-out: EC50 B/Florida/04/2006, B/Florida/04/2006.
[8] abbreviates: CC50, third EC50/CC50 column pair (c7), beside the EC50 of c6.
Setting [9] is: Influenza A virus, H3N2, read-out: EC50.
Where [10] appears, read: Influenza A virus, H1N1, read-out: EC50.
[11] abbreviates: CC50 B/Florida/04/2006, cytotoxicity in the B/Florida/04/2006 assay.
The mark [12] stands for this setting: Influenza A virus, H3N2, A/Perth/16/2009 (H3N2), read-out: EC50 A/Perth/16/2009 (H3N2).
The mark [13] stands for this setting: Influenza A virus, H1N1, A/California/07/2009 (H1N1), read-out: EC50 A/California/07/2009 (H1N1).

Where two headings read alike, the source gives them in different places.

As to `Cc1nn(Cc2nnc(SCc3ccccc3-c3ccncc3)o2)c(C)c1Br` [Compound 15, 2-((4-bromo-3,5-dimethyl-1H-pyrazol-1-yl)methyl)-5-((2-(pyridin-4-yl)benzyl)thio)-1,3,4-oxadiazole], the EC50 in the data set on A/Perth/16/2009 (H3N2) (setting [2]) amounted to 11.6 µM; in data set [1] (setting [3]), 8.9 µM; in the data set on B/Florida/04/2006 (setting [7]), 8.18 µM. For the same molecule, the CC50 in the data set with MDCK cells (setting [4]), in the data set on MDCK cells (setting [5]) and in the data set on MDCK cells (setting [6]) was above 50 µM in each case.
For `Cc1nn(Cc2nnc(SCc3ccccc3-c3ccncc3)o2)c(C)c1Br` [Compound 20, 2-((4-bromo-3,5-dimethyl-1H-pyrazol-1-yl)methyl)-5-((2-(pyridin-4-yl)benzyl)thio)-1,3,4-oxadiazole], the EC50 in the data set on A/Perth/16/2009 (H3N2) (setting [2]) turned out to be 0.7 µM; in data set [1] (setting [3]) it was 0.7 µM; in the data set on B/Florida/04/2006 (setting [7]), 0.66 µM. Also, the results for the CC50 with MDCK cells (setting [4]), in the data set on MDCK cells (setting [5]) and with MDCK cells (setting [6]) were 8.3 µM, 10.2 µM and 10.2 µM, respectively.
A word on the melting point: it is the temperature of the solid-liquid transition. For the molecule `CC(C)c1ccccc1/C=C/c1nnc(Cc2cccc(Br)c2)o1` [Compound 130, 2-(3-bromobenzyl)-5-(2-isopropylstyryl)-1,3,4-oxadiazole], the melting point amounted to 79.3 °C. The same molecule showed a CC50 in “in vitro” (CC50, beside the EC50 of c2) above 50 µM. This molecule came in with a CC50 in “in vitro” (CC50, beside the EC50 of c4) above 50 µM. Moreover, the CC50 in the data set “in vitro” (setting [8]) was above 50 µM. The EC50 in the data set on A/Perth/16/2009 (H3N2) (setting [9]) turned out to be 32.8 µM. For the same molecule, in data set [1] (setting [10]), the EC50 stood at 42.4 µM. The EC50 with B/Florida/04/2006 was 36.2 µM.
In the case of `Brc1ccc(Cc2nnc(/C=C/c3cccc4ccccc34)o2)cc1` [Compound 197, 2-(4-bromobenzyl)-5-(2-(naphthalen-1-yl)vinyl)-1,3,4-oxadiazole], the melting point is 116 °C. Also, the CC50 in “in vitro” (CC50, beside the EC50 of c2) was above 50 µM. The CC50 in “in vitro” (CC50, beside the EC50 of c4) was above 50 µM. Besides, the CC50 in “in vitro” (setting [8]) is above 50 µM. Moreover, the EC50 with A/Perth/16/2009 (H3N2) (setting [9]) was found to be 46.1 µM. For the same molecule, the EC50 in data set [1] (setting [10]) came to 26.9 µM. The molecule further gave an EC50 in the data set with B/Florida/04/2006 of 44.1 µM.
In turn, `COC(=O)c1ccccc1CSc1nnc(Cn2nc(C)c(Br)c2C)o1` [Compound 37, methyl 2-(((5-((4-bromo-3,5-dimethyl-1H-pyrazol-1-yl)methyl)-1,3,4-oxadiazol-2-yl)thio)methyl)benzoate] registered a melting point of 123.6 °C. Further, the CC50 in the data set “in vitro” (setting [11]) was above 50 µM. The EC50 in the data set on A/Perth/16/2009 (H3N2) (setting [12]) turned out to be 41.8 µM. Also, the EC50 in data set [1] (setting [13]) is 37.8 µM. Also, the EC50 with B/Florida/04/2006 (setting [7]) was above 50 µM.
The molecule `Cc1ccc(Cc2nnc(/C=C/c3ccc(F)cc3Cl)o2)cc1Br` [Compound 181, (E)-2-(3-bromo-4-methylbenzyl)-5-(2-chloro-4-fluorostyryl)-1,3,4-oxadiazole] came in with a melting point of 139 °C. In addition, the CC50 in “in vitro” (CC50, beside the EC50 of c2) was above 50 µM. The molecule further returned a CC50 in “in vitro” (CC50, beside the EC50 of c4) above 50 µM. Moreover, the CC50 in the data set “in vitro” (setting [8]) was above 50 µM. Besides, the EC50 in the data set on A/Perth/16/2009 (H3N2) (setting [9]) stood at 5.56 µM. The EC50 in data set [1] (setting [10]) stood at 10.9 µM. Besides, the EC50 with B/Florida/04/2006 was 8.29 µM.
On to `Cc1ccccc1CCc1nnc(Nc2ccc(C(F)(F)F)cc2)o1` [Compound 123, 5-(2-methylphenethyl)-N-(4-(trifluoromethyl)phenyl)-1,3,4-oxadiazol-2-amine], for which the melting point worked out at 164.5 °C. Besides, in the data set “in vitro” (CC50, beside the EC50 of c2), the CC50 was 35 µM. The CC50 in the data set “in vitro” (CC50, beside the EC50 of c4) was above 50 µM. In “in vitro” (setting [8]), the CC50 was above 50 µM. In addition, the EC50 in the data set with A/Perth/16/2009 (H3N2) (setting [9]) was 3.61 µM. For the same molecule, in data set [1] (setting [10]), the EC50 was 14.2 µM. This molecule also returned an EC50 with B/Florida/04/2006 of 11 µM.
`Cc1cc(C)cc(Nc2nnc(SCc3ccccc3-c3ccccc3)o2)c1` [Compound 68, 5-(([1,1′-biphenyl]-2-ylmethyl)thio)-N-(3,5-dimethylphenyl)-1,3,4-oxadiazol-2-amine] registered a melting point of 232.2 °C. This molecule gave a CC50 in the data set “in vitro” (setting [11]) above 50 µM. In addition, in the data set on A/Perth/16/2009 (H3N2) (setting [12]), the EC50 is 1.6 µM. Also, the EC50 in data set [1] (setting [13]) is 2.77 µM. For the same molecule, the EC50 in the data set on B/Florida/04/2006 (setting [7]) was 1.83 µM.
For `O=C(NCc1nnc(SCc2ccccc2-c2ccccc2)o1)c1ccc(Br)cc1` [Compound 51, N-((5-(([1,1′-biphenyl]-2-ylmethyl)thio)-1,3,4-oxadiazol-2-yl)methyl)-4-bromobenzamide] the same measures were 135.4 °C, 28.6 µM, 5.04 µM, 4.01 µM and 6.02 µM.
`Cc1nn(Cc2nnc(SCc3ccccc3Oc3ccccc3)o2)c(C)c1Br` [Compound 29, 2-((4-bromo-3,5-dimethyl-1H-pyrazol-1-yl)methyl)-5-((2-phenoxybenzyl)thio)-1,3,4-oxadiazole] returned a melting point of 92.3 °C. In the data set “in vitro” (setting [11]), this molecule displayed a CC50 of 5.23 µM. In the data set with A/Perth/16/2009 (H3N2) (setting [12]), the EC50 was determined as 1.4 µM. In addition, the EC50 in data set [1] (setting [13]) was 1.2 µM. Moreover, the EC50 in the data set with B/Florida/04/2006 (setting [7]) was determined as 1.99 µM.
As to `Oc1cccc(Cc2nnc(/C=C/c3ccc(F)cc3Cl)o2)c1` [Compound 201, (E)-3-((5-(2-chloro-4-fluorostyryl)-1,3,4-oxadiazol-2-yl)methyl)phenol], the melting point turned out to be 152.7 °C. In the data set “in vitro” (CC50, beside the EC50 of c2), this molecule displayed a CC50 above 50 µM. This molecule also returned a CC50 in the data set “in vitro” (CC50, beside the EC50 of c4) above 50 µM. Besides, the CC50 in “in vitro” (setting [8]) is above 50 µM. The EC50 with A/Perth/16/2009 (H3N2) (setting [9]) was determined as 3.05 µM. Besides, the EC50 in data set [1] (setting [10]) was found to be 3.25 µM. This molecule also registered an EC50 with B/Florida/04/2006 of 3.7 µM.
`Cc1cccc(C)c1Nc1nnc(C(O)c2ccc(F)c(Cl)c2)o1` (stereo not drawn) [Compound 79, (3-chloro-4-fluorophenyl)(5-((2,6-dimethylphenyl)amino)-1,3,4-oxadiazol-2-yl)methanol] gave a melting point of 185.8 °C. In “in vitro” (setting [11]), the CC50 is above 50 µM. Also, the EC50 with A/Perth/16/2009 (H3N2) (setting [12]) is above 50 µM. In addition, in data set [1] (setting [13]), the EC50 was above 50 µM. Besides, the EC50 with B/Florida/04/2006 (setting [7]) is above 50 µM.
For the molecule `Cc1nn(Cc2nnc(SCc3ccc(-c4ccccc4)cc3)o2)c(C)c1Br` [Compound 2, 2-(([1,1′-biphenyl]-4-ylmethyl)thio)-5-((4-bromo-3,5-dimethyl-1H-pyrazol-1-yl)methyl)-1,3,4-oxadiazole], the melting point worked out at 135.9 °C. The same molecule displayed a CC50 in “in vitro” (setting [11]) above 50 µM. The EC50 in the data set on A/Perth/16/2009 (H3N2) (setting [12]) is 46.7 µM. The EC50 in data set [1] (setting [13]) was found to be 47.5 µM. In addition, the EC50 in the data set with B/Florida/04/2006 (setting [7]) is above 50 µM.
The molecule `Cc1nn(Cc2nnc(SCc3ccccc3-c3ccsc3)o2)c(C)c1Br` [Compound 35, 2-((4-bromo-3,5-dimethyl-1H-pyrazol-1-yl)methyl)-5-((2-(thiophen-3-yl)benzyl)thio)-1,3,4-oxadiazole] gave a melting point of 86.9 °C. Besides, in the data set “in vitro” (setting [11]), the CC50 is above 50 µM. In addition, in the data set with A/Perth/16/2009 (H3N2) (setting [12]), the EC50 was found to be 0.8 µM. Further, in data set [1] (setting [13]), the EC50 came out at 0.7 µM. The EC50 in the data set on B/Florida/04/2006 (setting [7]) was determined as 1.88 µM.
For `[O-][S+](Cc1ccccc1-c1ccccc1)c1nnc(Nc2ccc(Br)cc2)o1` (stereo not drawn) [Compound 63, 5-(([1,1′-biphenyl]-2-ylmethyl)sulfinyl)-N-(4-bromophenyl)-1,3,4-oxadiazol-2-amine] the same measures were 199 °C, above 14.6 µM, 6.05 µM, 2.61 µM and 7.06 µM.

The values are drawn from patent publication US11149033B2, “Heteroaryl compound, enantiomer, diastereomer or pharmaceutically acceptable salt thereof, and antiviral composition containing same as active ingredient” (priority 2016, dated 2021).
